Non-standard residues stand in square brackets, D forms with d. Residues, ends and D or L forms follow the SMILES beside them. *: point of attachment. FITC = O=C1OC2(c3ccc(O)cc3Oc3cc(O)ccc32)c2ccc(NC(=S)*)cc21; pT = C[C@@H](OP(=O)(O)O)[C@H](N)C(=O)O; pS = N[C@@H](COP(=O)(O)O)C(=O)O
Legend:
Type in all cases: binding
Details in all cases: 14-3-3 titrated 80 to 0.003418, three replicates
14-3-3β = target: T1, 14-3-3β (Homo sapiens, UniProt P31946); assay: fluorescence polarization (FP) with FITC-labeled phosphopeptides, 14-3-3β
T1 sequence (P31946 1-246): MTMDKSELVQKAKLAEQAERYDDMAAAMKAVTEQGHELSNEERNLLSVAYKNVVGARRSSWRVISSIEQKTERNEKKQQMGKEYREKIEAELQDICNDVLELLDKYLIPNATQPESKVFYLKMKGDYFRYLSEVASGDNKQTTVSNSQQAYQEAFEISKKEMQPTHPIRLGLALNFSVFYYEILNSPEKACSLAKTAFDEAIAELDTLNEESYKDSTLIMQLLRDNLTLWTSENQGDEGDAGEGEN
Method: (§1) Fig. 4 14-3-3 isoform binding specificity of Nedd4-2 phosphomotifs. Binding of FITC-labeled phosphopeptides with 14-3-3 binding motifs of Nedd4-2 (pSer^342, pThr^367 or pSer^448) to all human 14-3-3 isoforms was characterized by FP titrations. The binding affinities of these peptides were determined by fitting FP data to a one-site binding model. The corresponding sequences of these peptides are shown at the top. Background polarization was subtracted from all values. Results are expressed as mean ± SD (n = 3). Error bars are not visible if they are smaller than the size of the symbol.
(§2) The FP assay was performed using a CLARIOstar microplate reader (BMG Labtech, […]) on 384-well black low-volume flat-bottom plates (Corning, New York, USA) in a buffer containing 10 mM HEPES (pH 7.4), 150 mM NaCl, 0.1% (v/v) Tween 20 and 0.1% (w/v) BSA. […] The excitation and emission wavelengths were 482 nm and 530 nm, respectively. The KD values were determined as the mean of three independent measurements using GraphPad Prism version 8.0.1 for Windows, GraphPad Software, La Jolla California USA, www.graphpad.com.
(§3) Results from the FP assay (Fig. 4) and immunoblot (Supplementary Fig. S1) are represented as means ± SD from three replicates as indicated in the figure legend. Statistical analysis for the data from immunoblot were performed using Graph-Pad Prism 8.4. Student’s t-test was used for comparison of relative changes of samples with and without 14-3-3η at selected timepoints (ns, non-significant P > 0.05; *, P < 0.05).

14-3-3τ = target: T2, 14-3-3τ (Homo sapiens, UniProt P27348); assay: fluorescence polarization (FP) with FITC-labeled phosphopeptides, 14-3-3τ
T2 sequence (P27348 1-245): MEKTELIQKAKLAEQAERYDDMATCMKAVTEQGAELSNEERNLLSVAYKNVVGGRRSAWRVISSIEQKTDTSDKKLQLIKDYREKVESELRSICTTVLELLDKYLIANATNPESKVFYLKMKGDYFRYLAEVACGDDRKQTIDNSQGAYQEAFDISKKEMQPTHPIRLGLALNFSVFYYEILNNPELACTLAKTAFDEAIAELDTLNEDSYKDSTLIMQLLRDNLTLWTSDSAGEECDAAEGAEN
Method: as §1, §2, §3

14-3-3γ = target: T3, 14-3-3γ (Homo sapiens, UniProt P61981); assay: fluorescence polarization (FP) with FITC-labeled phosphopeptides, 14-3-3γ
T3 sequence (P61981 1-247): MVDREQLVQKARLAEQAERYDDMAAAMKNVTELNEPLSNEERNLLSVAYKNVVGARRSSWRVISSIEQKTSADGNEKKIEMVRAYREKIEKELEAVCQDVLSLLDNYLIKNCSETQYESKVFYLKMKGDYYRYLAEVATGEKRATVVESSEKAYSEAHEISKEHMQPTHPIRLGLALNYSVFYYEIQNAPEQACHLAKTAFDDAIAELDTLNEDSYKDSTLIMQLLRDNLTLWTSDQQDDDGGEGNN
Method: as §1, §2, §3

14-3-3η = target: T4, 14-3-3η (Homo sapiens, UniProt Q04917); assay: fluorescence polarization (FP) with FITC-labeled phosphopeptides, 14-3-3η
T4 sequence (Q04917 1-246): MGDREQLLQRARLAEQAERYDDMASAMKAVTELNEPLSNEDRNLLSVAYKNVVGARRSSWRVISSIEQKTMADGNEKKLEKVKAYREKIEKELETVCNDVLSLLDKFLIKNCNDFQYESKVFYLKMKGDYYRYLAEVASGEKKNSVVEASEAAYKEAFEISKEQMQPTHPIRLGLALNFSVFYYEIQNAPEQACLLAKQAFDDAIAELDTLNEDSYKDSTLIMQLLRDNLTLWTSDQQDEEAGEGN
Method: as §1, §2, §3

14-3-3σ = target: T5, 14-3-3σ (Homo sapiens, UniProt P31947); assay: fluorescence polarization (FP) with FITC-labeled phosphopeptides, 14-3-3σ
T5 sequence (P31947 1-248): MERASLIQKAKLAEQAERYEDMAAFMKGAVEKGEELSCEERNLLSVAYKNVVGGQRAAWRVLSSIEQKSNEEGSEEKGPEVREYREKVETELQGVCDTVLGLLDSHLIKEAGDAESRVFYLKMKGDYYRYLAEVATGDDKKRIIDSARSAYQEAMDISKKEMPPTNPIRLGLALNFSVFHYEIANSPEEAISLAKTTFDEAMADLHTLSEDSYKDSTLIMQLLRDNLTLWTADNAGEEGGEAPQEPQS
Method: as §1, §2, §3

14-3-3ζ = target: T6, 14-3-3ζ (Homo sapiens, UniProt P63104); assay: fluorescence polarization (FP) with FITC-labeled phosphopeptides, 14-3-3ζ
T6 sequence (P63104 1-245): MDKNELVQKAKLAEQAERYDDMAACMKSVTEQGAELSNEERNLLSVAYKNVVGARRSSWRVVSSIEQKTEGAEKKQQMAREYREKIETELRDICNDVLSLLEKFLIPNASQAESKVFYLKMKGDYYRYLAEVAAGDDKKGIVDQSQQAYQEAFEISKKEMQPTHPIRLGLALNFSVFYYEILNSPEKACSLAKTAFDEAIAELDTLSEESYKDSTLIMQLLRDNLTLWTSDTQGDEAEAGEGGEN
Method: as §1, §2, §3

14-3-3ε = target: T7, 14-3-3ε (Homo sapiens, UniProt P62258); assay: fluorescence polarization (FP) with FITC-labeled phosphopeptides, 14-3-3ε
T7 sequence (P62258 1-255): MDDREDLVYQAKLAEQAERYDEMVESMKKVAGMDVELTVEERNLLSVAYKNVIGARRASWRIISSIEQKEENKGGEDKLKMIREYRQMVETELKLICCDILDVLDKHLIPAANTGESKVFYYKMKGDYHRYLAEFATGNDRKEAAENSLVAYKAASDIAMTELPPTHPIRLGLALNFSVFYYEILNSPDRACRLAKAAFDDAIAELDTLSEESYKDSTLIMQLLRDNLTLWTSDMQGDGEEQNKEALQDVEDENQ
Method: as §1, §2, §3

Row | Bmax (One site -- Specific binding, best-fit value) (14-3-3β) | Bmax (One site -- Specific binding, best-fit value) (14-3-3τ) | Bmax (One site -- Specific binding, best-fit value) (14-3-3γ) | Bmax (One site -- Specific binding, best-fit value) (14-3-3η) | Bmax (One site -- Specific binding, best-fit value) (14-3-3σ) | Bmax (One site -- Specific binding, best-fit value) (14-3-3ζ) | Bmax (One site -- Specific binding, best-fit value) (14-3-3ε) | Structure (SMILES)
1 | 1 | 0.8496 | 0.9424 | 0.8968 | 0.7456 | 0.9954 | 0.7529 | CC(C)C[C@H](NC(=O)[C@H](CO)NC(=O)[C@H](CCCNC(=N)N)NC(=O)[C@@H]1CCCN1C(=S)Nc1ccc2c(c1)C(=O)OC21c2ccc(O)cc2Oc2cc(O)ccc21)C(=O)N[C@@H](COP(=O)(O)O)C(=O)N[C@@H](CO)C(=O)N1CCC[C@H]1C(=O)N[C@H](C(=O)N[C@H](C(=O)N[C@H](C(=O)O)[C@@H](C)O)C(C)C)[C@@H](C)O [Nedd4-2 peptide pS448] ({FITC}-PRSL[pS]SPTVT-OH; C-terminus assumed)
2 | 0.1665 | 0.1186 | 0.2226 | 0.164 | 0.9999 | 0.1453 | 0.261 | CC(C)C[C@H](NC(=S)Nc1ccc2c(c1)C(=O)OC21c2ccc(O)cc2Oc2cc(O)ccc21)C(=O)N[C@@H](CCCNC(=N)N)C(=O)N[C@@H](CO)C(=O)N[C@@H](CS)C(=O)N[C@@H](COP(=O)(O)O)C(=O)N[C@H](C(=O)N[C@H](C(=O)N[C@@H](CC(=O)O)C(=O)N[C@@H](C)C(=O)N[C@H](C(=O)O)C(C)C)[C@@H](C)O)C(C)C [Nedd4-2 peptide pS342] ({FITC}-LRSC[pS]VTDAV-OH; C-terminus assumed)

Row | Structure (SMILES) | Bmax (One site -- Specific binding, best-fit value) (14-3-3β) | Bmax (One site -- Specific binding, best-fit value) (14-3-3τ) | Bmax (One site -- Specific binding, best-fit value) (14-3-3γ) | Bmax (One site -- Specific binding, best-fit value) (14-3-3η) | Bmax (One site -- Specific binding, best-fit value) (14-3-3σ) | Bmax (One site -- Specific binding, best-fit value) (14-3-3ζ) | Bmax (One site -- Specific binding, best-fit value) (14-3-3ε)
3 | CC(C)[C@H](NC(=O)[C@@H](NC(=O)[C@H](CO)NC(=O)[C@H](CO)NC(=O)[C@H](CCCNC(=N)N)NC(=O)[C@H](C)NC(=S)Nc1ccc2c(c1)C(=O)OC21c2ccc(O)cc2Oc2cc(O)ccc21)[C@@H](C)OP(=O)(O)O)C(=O)N[C@H](C(=O)NCC(=O)NCC(=O)N[C@@H](CCC(=O)O)C(=O)O)[C@@H](C)O [Nedd4-2 peptide pT367] ({FITC}-ARSS[pT]VTGGE-OH; C-terminus assumed) | 0.9561 | 0.7863 | 0.9894 | 0.8265 | 0.1205 | 1.002 | 0.3092
